Data taken from PMC4865845, “A human genome-wide loss-of-function screen identifies effective chikungunya antiviral drugs” (Nature Communications, 2016).

What was measured:
[1] = biological target: CLK1 (Homo sapiens, UniProt P49759); experiment: CLK1 inhibition by capillary electrophoresis in a microfluidic chip system (LabChip3000); assay type: biochemical
[2] = system: CHIKV; experiment: microbe, parasite or virus in culture; assay type: cell-based, chikungunya virus; conditions: Chikungunya virus, HEK293; HEK-293 cells pretreated with dilutions of each drug, CHIKV-GFP, 18 h p.i.
[3] = system: HEK-293 cells; experiment: Cell viability, Cell Proliferation Reagent WST-1; assay type: cell-based, human; conditions: Homo sapiens, HEK293, 18 h, read-out: WST-1 IC50
Procedure: To exclude the possible cytotoxic effects, all compounds were additionally tested using the ‘Cell Proliferation Reagent WST-1' (Roche Diagnostics). HEK-293 cells were treated with the same concentrations of the various substances and 18 h later WST-1 was added. Readout was conducted using the EnVision Multilabel Reader (PerkinElmer).

[4] = system: CHIKV C21; experiment: Quantitative RT-PCR of cell- and supernatant-associated vRNA; assay type: cell-based, chikungunya virus; conditions: HeLa; for vRNA synthesis (cell-associated vRNA) / viral release in the supernatants (supernatant-associated vRNA): CHIKV C21 MOI 50 for 1 h, then drug 7 h: cerulenin 50 μM, TOFA 25 μM, pimozide 10 μM, W7 20 μM, tivozanib 5 μM; for vRNA replication, delayed treatment / viral release, delayed treatment: CHIKV-infected, drugs from 6 to 8 h p.i.
[5] = system: CHIKV C21; assay type: in vivo, C57BL/6 mice; conditions: adult mice pretreated at least 3 days (pimozide 20 mg kg−1 per os; TOFA 25 mg kg−1 i.p.), 18 h p.i.
[6] = system: herpes simplex type 1 strain KOS (HSV-1); assay type: cell-based, herpes simplex virus 1; conditions: HEK-293 cells pretreated 2 h, Fig. 4
[7] = system: HeLa cells; experiment: Cell viability, CellTiter-Glo kit; conditions: end of the 1 h infection + 7 h treatment experiment
[8] = system: CHIKV C21; experiment: Intradermal CHIKV infection model of neonatal mice; conditions: neonatal mice
[9] = system: CHIKV replicon; experiment: CHIKV replicon dual-luciferase assay (genomic and subgenomic vRNA expression); assay type: cell-based, chikungunya virus; conditions: HeLa cells, inhibitor from 1 h p.i., read 8 h p.i.
[10] = system: HeLa cells; experiment: Real-time cell toxicity assay (xCELLigence)

CLK1, sequence (P49759 whole entry): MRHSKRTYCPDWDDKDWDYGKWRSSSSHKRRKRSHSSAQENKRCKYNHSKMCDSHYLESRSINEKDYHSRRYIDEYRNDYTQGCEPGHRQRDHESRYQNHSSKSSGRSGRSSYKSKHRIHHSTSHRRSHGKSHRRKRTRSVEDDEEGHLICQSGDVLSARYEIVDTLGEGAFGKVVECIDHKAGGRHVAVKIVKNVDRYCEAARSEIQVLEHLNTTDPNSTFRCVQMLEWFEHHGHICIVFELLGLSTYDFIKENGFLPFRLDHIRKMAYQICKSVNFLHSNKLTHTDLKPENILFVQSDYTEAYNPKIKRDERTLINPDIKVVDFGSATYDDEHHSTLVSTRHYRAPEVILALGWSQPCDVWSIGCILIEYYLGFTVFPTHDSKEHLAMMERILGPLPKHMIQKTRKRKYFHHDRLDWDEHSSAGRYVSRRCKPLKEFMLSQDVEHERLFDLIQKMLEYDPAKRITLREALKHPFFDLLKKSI

## C#CCn1c2c(Br)nccc2c2ccc(Cl)c(Cl)c21 [AnnH80, 1-bromo-7,8-dichloro-9-(prop-2-yn-1-yl)-9H-pyrido[3,4-b]indole]
[1]
  IC50: 0.862 µM
other
  melting point: 190 to 193 °C

## O=c1[nH]c2ccccc2n1C1CCN(CCCC(c2ccc(F)cc2)c2ccc(F)cc2)CC1 [Pimozide]
[2]
  IC50: 0.28 µM
[3]
  IC50: 19.2 µM
[4]
  vRNA synthesis (cell-associated vRNA): significantly reduced vRNA synthesis
  viral release in the supernatants (supernatant-associated vRNA): strongly inhibited viral release
  vRNA replication, delayed treatment: only a minor impact on vRNA replication
  viral release, delayed treatment: major defect in viral release
[5]
  CHIKV titres in the footpad (replication): significantly reduced replication
[6]
  antiviral effect on HSV-1: antiviral effect
[7]
  cell toxicity: no detectable cell toxicity
[8]
  impact on mouse growth: detectable impact on mouse growth

## CCCCCCCCCCCCCCOc1ccc(C(=O)O)o1 [TOFA, 5-tetradecyloxy-2-furoic acid]
[2]
  IC50: 0.15 µM
[3]
  IC50: > 60 µM
[9]
  genomic and subgenomic vRNA synthesis: significant and dose-dependent reduction
[4]
  vRNA synthesis (cell-associated vRNA): significantly reduced vRNA synthesis
  viral release in the supernatants (supernatant-associated vRNA): strongly inhibited viral release
  vRNA replication, delayed treatment: only a minor impact on vRNA replication
  viral release, delayed treatment: major defect in viral release
[5]
  CHIKV titres in the footpad (replication): significantly reduced replication
[7]
  cell toxicity: no detectable cell toxicity
[10]
  effect on cell viability: no deleterious effect on cell viability
[8]
  impact on mouse growth: detectable impact on mouse growth
